Key:
Format in all cases: cell-based
[1] = system: neonatal (N) human dermal fibroblasts (HDF); test: Mitotic duration by long-term phase-contrast time-lapse microscopy, neonatal cells; details: 1 µM, 24 hrs (FIG. 4A)
Procedure: (§1) Human dermal fibroblasts (HDFs) retrieved from skin samples of neonatal (No. GM21811, Coriell Institute; No. DFM021711A, Zen Bio) and octogenarian (No. AG07135; AG13993; AG09271; AG10884; all from Coriell Institute) were used. All donors were reported as “healthy”. For all experiments, HDFs were seeded at 1x10^4 cells per cm2 of growth area in minimal essential medium Eagle-Earle (MEM) supplemented with 15% fetal bovine serum (FBS), 2 mM L-glutamine, and 1x antibiotic-antimycotic (all from Gibco, Thermo Fisher Scientific). Only early passage dividing fibroblasts (up to passage 3-5) with cumulative population doubling level PDL < 24 were used.
(§2) For image analysis, both live-cell phenotypes (mitotic duration, lagging chromosomes) and fixed-cell experiments (protein intensity, k-fiber intensity, KT distances, FISH, MN counts, cGAS positivity and SA biomarkers) were blindly quantified using ImageJ/Fiji software. […] DNA aggregates co-localizing with cGAS were scored as MN positive for cGAS. For the analysis of SA biomarkers (53bpl/p21 and SA-β-galactosidase), fluorescence intensity thresholds were set and used consistently for all samples within each experiment. […]
(§3) FIG. 4: Small molecule agonist of MCAK activity UMK57 rescues age-associated CIN and delays senescence. […] (D) Aneusomy index of chromosomes 7, 12 and 18 measured by interphase FISH analysis. […]

[2] = system: elderly human dermal fibroblasts (HDF); test: 53BP1/p21 double immunostaining senescence biomarkers; details: 1 µM
Procedure: as §1
For immunofluorescence, fibroblasts were grown on sterilized glass coverslips coated with 50 µg/ml fibronectin (F1141, Sigma-Aldrich) and fixed with 4% paraformaldehyde in PBS for 20 min. […]
as §2

[3] = system: elderly human dermal fibroblasts (HDF); test: Micronuclei (MN) counts; details: 1 µM, 24-hour exposure (FIG. 4F)
Procedure: as §1, §2

[4] = system: elderly human dermal fibroblasts (HDF); test: Cyto-D FISH chromosome mis-segregation in cytokinesis-blocked binucleated (BN) cells; details: 1 µM
Procedure: as §1
Proteasome inhibitor MG-132 (474790, EMD Millipore) was used at 5 µM for 2 hrs to arrest cells at the metaphase stage. Cytochalasin D (C8273, Sigma-Aldrich) was used at 1 µM for 24 hrs to block cytokinesis. Fibroblasts were treated with 2.5 µM STLC (2191, TOCRIS) for 5 hrs to inhibit kinesin-5 activity and induce monopolar spindles, followed by a washout into fresh medium with 500 nM of Aurora kinase B inhibitor ZM447439 (S1103, Selleckchem) to potentiate chromosome segregation errors. […]
(§4) FISH was used to score aneusomy indexes (Interphase FISH; FIGS. 4D, 5C) and chromosome mis-segregation (MS) rates. MS rates were scored by Cyto-D FISH (FIGS. 4E and 5D), or by FISH on STLC-washed-out fibroblasts (FIGS. 1G,H). […]

[5] = system: elderly human dermal fibroblasts (HDF); test: Calcium-stable k-fiber intensity analysis in metaphase; details: 1 µM
Procedure: Human dermal fibroblasts (HDFs) retrieved from skin samples of neonatal (No. GM21811, Coriell Institute; No. DFM021711A, Zen Bio) and octogenarian (No. AG07135; AG13993; AG09271; AG10884; all from Coriell Institute) were used. All donors were reported as “healthy”. For all experiments, HDFs were seeded at 1x10^4 cells per cm2 of growth area in minimal essential medium Eagle-Earle (MEM) supplemented with 15% fetal bovine serum (FBS), 2 mM L-glutamine, and 1x antibiotic-antimycotic (all from Gibco, Thermo Fisher Scientific). Only early passage dividing fibroblasts (up to passage 3-5) with cumulative population doubling level PDL < 24 were used. […]
In fluorescence microscopy, cells with calcium-stabilized k-fibers or stained for specific kinetochore/centromere-bound proteins (Aurora B/Aim-1, Hec1/Ndc80, MCAK, Plk1, pAuroraB T232 and ACA) were imaged using a Zeiss AxioImager Z1 (Carl Zeiss, Oberkochen, Germany) motorized upright epifluorescence microscope, equipped with an Axiocam MR camera and operated by the Zeiss Axiovision v4.7 software. […]
For image analysis, both live-cell phenotypes (mitotic duration, lagging chromosomes) and fixed-cell experiments (protein intensity, k-fiber intensity, KT distances, FISH, MN counts, cGAS positivity and SA biomarkers) were blindly quantified using ImageJ/Fiji software. […] DNA aggregates co-localizing with cGAS were scored as MN positive for cGAS. […]

[6] = system: elderly human dermal fibroblasts (HDF); test: Interphase FISH aneusomy index of chromosomes 7, 12 and 18; details: 1 µM
Procedure: as §1
For FISH, MN counts, cGAS immunofluorescence and SA biomarkers, images were captured with the IN Cell Analyzer 2000 (GE Healthcare, UK) equipped with a Photometrics CoolSNAP K4 camera and driven by the GE IN Cell Analyzer 2000 v5.2 software, using a Nikon 20x/0.45 NA Plan Fluor objective and a Nikon 40x/0.95 NA Plan Fluor objective, respectively.
1 µM of UMK57 was used to enhance kinesin-13 activity during the time periods indicated for each experiment.
as §4

[7] = system: elderly human dermal fibroblasts (HDF); test: Mitotic duration by long-term phase-contrast time-lapse microscopy, elderly cells
Procedure: as §1, §2, §3

[8] = system: elderly human dermal fibroblasts (HDF); test: SA-β-galactosidase activity assay; details: 1 µM
Procedure: as §1, §2

Cc1ccc(-c2csc3ncnc(N4CCCC4)c23)cc1 [UMK57, 4-Pyrrolidin-1-yl-5-p-tolyl-thieno[2,3-d] pyrimidine]
effect on the mitotic progression of neonatal cultures [1]: no noticeable effect | percentage of cells exhibiting the senescence biomarkers 53bp1+p21 ([2]; 24-hour treatment (FIG. 4G)): partially rescue | senescence markers: 53BP1/p21 positive cells ([2]; 96 hrs (FIG. 5E)): partial rescue | MN (micronuclei) levels [3]: partly decreased | chromosome mis-segregation rate in binucleated (BN) cells ([4]; 24 hrs, cytochalasin D (FIG. 4E)): decreases | chromosome mis-segregation (BN cells FISH) ([4]; 96 hours (FIG. 5D)): inhibited | number of stable k-MT attachments in metaphase (calcium-stable k-fiber intensity) ([5]; 24 hrs (FIG. 4B,C)): decreases the number of stable k-MT attachments in metaphase | k-fiber intensity levels in metaphase ([5]; 96 hours (FIG. 5B)): decreased k-fiber intensity levels | levels of aneuploidy (aneusomy index, interphase FISH) ([6]; 24 hrs (FIG. 4D)): decreases the levels of aneuploidy | aneuploidy (interphase FISH) ([6]; 96 hours (FIG. 5C)): inhibited | mitotic delay of elderly cells ([7]; 1 µM, 96-hour treatment (FIG. 5A)): rescued | concentration sufficient to rescue the increased mitotic duration in elderly cells ([7]; increasing concentrations, 24-hour time-lapse (FIG. 4A)): 1 µM | percentage of cells exhibiting SA-β-galactosidase activity ([8]; 24-hour treatment (FIG. 4H)): partially rescue | senescence markers: SA-β-gal positive cells ([8]; 96 hrs (FIG. 5F)): partial rescue

— patent publication US20230346785A1, “4-PYRROLIDIN-1-Yl-5-P-TOLYL-THIENO[2,3-D] PYRIMIDINE FOR USE IN THE TREATMENT OF AGING-ASSOCIATED AND PREMATURE AGING DISEASES THROUGH RESTORED CHROMOSOMAL STABILITY AND INHIBITION OF CELLULAR SENESCENCE” (IBMC - INSTITUTO DE BIOLOGIA MOLECULAR E CELULAR, priority 2020, published 2023)
